Data reported in patent US9931410B2, “Nanoparticles for targeted delivery of multiple therapeutic agents and methods of use” (priority 2012, dated 2018).

Assays:
[1] = Drug loading and encapsulation efficiency (AAS for platinum, spectrophotometry for irinotecan); type: physicochemical
Method: Particle sizing was performed using dynamic light scattering (DLS) with a Zetasizer Nano ZS instrument (Malvern Instruments Ltd., U.K.). For each measurement, 100 μL or more of the sample was loaded in a disposable low-volume cuvette. Transmission electron microscopy (TEM) experiments were carried out on a JEOL 2011 instrument at an acceleration voltage of 200 kV. The TEM sample was prepared by depositing 10 μL of the nanoparticle suspension (1.0 mg/mL) onto a 300-mesh carbon-coated copper grid. Samples were blotted away after 30 minutes incubation and the grids were negatively stained for 20 minutes at room temperature with a sterile-filtered 1% (w/v) uranyl acetate aqueous solution. Drug loading and encapsulation efficiency (EE) were determined by quantifying the amount of drug in the nanoparticles. Drug loading is defined as the mass fraction of the drug in the nanoparticles, whereas EE is the fraction of initial drug that is encapsulated by the nanoparticles. After synthesis, nanoparticles were dissolved in a solution 50/50 acetonitrile/water and vortexed for several hours to induce nanoparticle dissociation. The amount of platinum inside the nanoparticles was detected using Atomic Absorption Spectroscopy (AAS), from which the load of cisplatin was calculated. Irinotecan was detected using spectrophotometry on a TECAN 1000 plate reader at a wavelength of 385 nm. A calibration curve with known concentrations of irinotecan was prepared, and the amount of irinotecan encapsulated in the nanoparticles was calculated using the calibration curve.

[2] = Drug release from nanoparticles over time in phosphate buffered saline; type: physicochemical; conditions: PLGA-PEG-LIG nanoparticles, irinotecan to cisplatin ratio 2:1, phosphate buffered saline
Method: FIG. 8 is a graph showing the percent of irinotecan and platinum release from PLGA-PEG-LIG nanoparticles over time in phosphate buffered saline.
Next, the amount of cisplatin and irinotecan encapsulated in the nanoparticles as well their encapsulation efficiency (EE) was determined (FIG. 7). As expected, cisplatin was encapsulated with very high efficiency (>80%) due to the hydrophobic-hydrophobic interaction PLGA and PLA. […] This might be due to hydrophilic-hydrophilic interactions of the platinum prodrug and irinotecan. […] The percent drug release of irinotecan and platinum of these nanoparticles over time was also assessed. Irinotecan was released from these nanoparticles at a faster rate compared to the release of the Pt-containing chemotherapeutic agent (FIG. 8).

[3] = after self-assembly with PLGA-PEG
[4] = mixed with both PLGA-PEG and PLA-cisplatin

drug loading of irinotecan [1, 3]	encapsulation efficiency (EE) of irinotecan [1, 3]	drug loading of irinotecan [1, 4]	encapsulation efficiency (EE) of irinotecan [1, 4]	rate of drug release from nanoparticles compared to the Pt-containing agent [2]	SMILES	encapsulation efficiency of cisplatin ([1]; cisplatin as PLA-cisplatin in nanoparticles)
					N.N.[Cl][Pt][Cl] [cisplatin]	> 80%
0.5%	10%	2.2%	44%	faster rate	CCc1c2c(nc3ccc(OC(=O)N4CCC(N5CCCCC5)CC4)cc13)-c1cc3c(c(=O)n1C2)COC(=O)[C@]3(O)CC [Irinotecan, irinotecan]	
